# How the values were obtained:
# human OAT3 = target: T1, human OAT3 (Homo sapiens, UniProt Q8TCC7); assay: Cellular transport assay, HEK-293 cells expressing human OAT3; settings: positive substrate 20 μM, 10 min; human OAT3
# T1 sequence (Q8TCC7 1-542): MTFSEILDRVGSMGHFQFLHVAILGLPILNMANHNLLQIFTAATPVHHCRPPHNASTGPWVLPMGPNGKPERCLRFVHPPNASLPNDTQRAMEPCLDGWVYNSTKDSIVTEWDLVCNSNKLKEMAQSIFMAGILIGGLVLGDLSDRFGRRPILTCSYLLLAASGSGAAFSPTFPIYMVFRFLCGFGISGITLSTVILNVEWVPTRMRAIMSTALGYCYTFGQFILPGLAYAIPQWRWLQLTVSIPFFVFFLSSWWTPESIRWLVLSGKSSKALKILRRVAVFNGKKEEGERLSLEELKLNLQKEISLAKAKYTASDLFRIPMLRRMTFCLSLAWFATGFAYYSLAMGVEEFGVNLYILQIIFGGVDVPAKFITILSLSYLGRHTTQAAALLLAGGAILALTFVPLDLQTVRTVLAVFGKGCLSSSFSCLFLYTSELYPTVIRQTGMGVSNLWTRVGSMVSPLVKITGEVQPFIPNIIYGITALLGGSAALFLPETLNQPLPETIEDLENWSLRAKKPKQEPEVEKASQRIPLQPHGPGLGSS
# Procedure: (§1) Briefly, HEK-293 cells were grown, at 37°C and 5% CO2, in Dulbecco’s modified Eagle’s medium, which was fortified with 10% fetal bovine serum, 1% minimal essential medium nonessential amino acids, and 1% antibiotic-antimycotic solution. A day before transfection, cells were seeded onto 24-well poly-D-lysine-coated plates at a density of 2 × 10^5 cells per well. After incubation at 37°C and 5% CO2 for 24 h, the expression plasmid and the empty vector were introduced separately into the HEK293 cells with Lipofectamine 2000 transfection reagent (Invitrogen, Carlsbad, CA, United States), according to the manufacturer’s protocol to yield transporter-expressing cells and mock cells, respectively.
# (§2) Transport studies were performed 48 h after the transfection. […] Differential uptake between the transfected cells and mock cells was defined as net transport ratio (TransportTC/TransportMC ratio), where TransportTC and TransportMC are the transport rates of a test Danshen compound into transfected and mock cells, respectively. […] The determination was performed under linear uptake conditions by incubation for 5 min. Table 1 summarizes the final concentrations of the test Danshen compounds for different transporters. All the incubation samples were analyzed by liquid chromatography/mass spectrometry.
# (§3) GraFit software (version 5.0; Erithacus Software Ltd, Surrey, United Kingdom) was used to determine the K m and V max values by nonlinear regression analysis of initial transport rates as a function of substrate concentration.
# human OATP2B1 = target: T2, human OATP2B1 (Homo sapiens, UniProt O94956); assay: Cellular transport assay, HEK-293 cells expressing human OATP2B1; settings: positive substrate 20 μM, 10 min; human OATP2B1
# T2 sequence (O94956 1-709): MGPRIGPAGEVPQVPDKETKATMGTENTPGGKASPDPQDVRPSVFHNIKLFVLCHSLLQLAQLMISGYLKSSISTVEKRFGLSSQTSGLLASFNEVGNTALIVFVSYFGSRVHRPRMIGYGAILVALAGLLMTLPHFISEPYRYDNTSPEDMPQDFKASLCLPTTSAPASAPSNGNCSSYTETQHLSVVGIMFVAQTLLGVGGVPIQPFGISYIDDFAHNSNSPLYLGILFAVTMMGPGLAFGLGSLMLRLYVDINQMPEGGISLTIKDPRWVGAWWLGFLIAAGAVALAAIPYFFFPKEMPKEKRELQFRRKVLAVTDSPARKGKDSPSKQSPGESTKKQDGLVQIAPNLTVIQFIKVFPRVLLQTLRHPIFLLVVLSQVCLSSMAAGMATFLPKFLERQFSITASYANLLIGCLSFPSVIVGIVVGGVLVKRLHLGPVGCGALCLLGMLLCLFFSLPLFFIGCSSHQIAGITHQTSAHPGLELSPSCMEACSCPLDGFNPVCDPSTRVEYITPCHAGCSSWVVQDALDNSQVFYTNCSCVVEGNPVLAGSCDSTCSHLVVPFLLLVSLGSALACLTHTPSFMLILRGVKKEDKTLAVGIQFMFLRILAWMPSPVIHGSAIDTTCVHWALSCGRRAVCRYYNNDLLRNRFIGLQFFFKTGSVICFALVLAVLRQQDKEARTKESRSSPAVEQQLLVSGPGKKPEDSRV
# human OAT4 = target: T3, human OAT4 (Homo sapiens, UniProt Q9NSA0); assay: Cellular transport assay, HEK-293 cells expressing human OAT4; settings: positive substrate 20 μM, 10 min; human OAT4
# T3 sequence (Q9NSA0 1-550): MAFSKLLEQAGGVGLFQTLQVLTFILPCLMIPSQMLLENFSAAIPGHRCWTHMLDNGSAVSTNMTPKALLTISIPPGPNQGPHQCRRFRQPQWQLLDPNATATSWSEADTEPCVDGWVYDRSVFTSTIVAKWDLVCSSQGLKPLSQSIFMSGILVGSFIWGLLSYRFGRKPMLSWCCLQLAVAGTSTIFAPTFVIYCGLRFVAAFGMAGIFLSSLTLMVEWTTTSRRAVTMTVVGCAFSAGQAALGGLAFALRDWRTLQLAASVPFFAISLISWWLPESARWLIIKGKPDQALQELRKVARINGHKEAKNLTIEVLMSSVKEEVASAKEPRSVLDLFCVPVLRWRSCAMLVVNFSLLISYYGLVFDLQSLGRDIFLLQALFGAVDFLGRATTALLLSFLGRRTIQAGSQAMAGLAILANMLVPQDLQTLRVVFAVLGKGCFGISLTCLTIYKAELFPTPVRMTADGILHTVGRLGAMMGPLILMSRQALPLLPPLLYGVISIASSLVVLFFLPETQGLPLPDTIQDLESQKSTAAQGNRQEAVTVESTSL
# Procedure: as §1, §2, §3
# rat Oat3 = target: T4, rat Oat3 (Rattus norvegicus, UniProt Q9R1U7); assay: Cellular transport assay, HEK-293 cells expressing rat Oat3; settings: positive substrate 20 μM, 10 min; rat Oat3
# T4 sequence (Q9R1U7 1-536): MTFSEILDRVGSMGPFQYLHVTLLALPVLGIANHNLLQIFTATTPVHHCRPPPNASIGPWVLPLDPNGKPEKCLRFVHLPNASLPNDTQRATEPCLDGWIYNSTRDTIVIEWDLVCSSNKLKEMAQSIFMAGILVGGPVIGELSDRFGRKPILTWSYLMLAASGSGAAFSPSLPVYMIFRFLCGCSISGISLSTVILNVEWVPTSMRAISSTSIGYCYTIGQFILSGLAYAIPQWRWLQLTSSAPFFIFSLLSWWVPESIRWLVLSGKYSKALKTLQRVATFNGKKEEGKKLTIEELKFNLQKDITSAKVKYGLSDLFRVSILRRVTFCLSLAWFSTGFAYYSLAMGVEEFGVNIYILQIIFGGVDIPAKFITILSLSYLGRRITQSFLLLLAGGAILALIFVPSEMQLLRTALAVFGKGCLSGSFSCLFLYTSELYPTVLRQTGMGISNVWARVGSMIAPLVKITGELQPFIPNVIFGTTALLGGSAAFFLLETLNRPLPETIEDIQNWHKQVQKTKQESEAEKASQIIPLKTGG
# Procedure: as §1, §2, §3
structure (smiles),measurement,setting,value
"C[C@]12CC[C@@H]3c4ccc(OS(=O)(=O)O)cc4CC[C@H]3[C@@H]1CCC2=O [E1S, estrone-3-sulfate, reference compound]","TransportTC/TransportMC ratio, positive substrate",human OAT3,10.2 ± 1.2 (E1S)
same,"TransportTC/TransportMC ratio, positive substrate",human OATP2B1,41.1 ± 1.5 (E1S)
same,"TransportTC/TransportMC ratio, positive substrate",human OAT4,7.69 ± 1.74 (E1S)
same,"TransportTC/TransportMC ratio, positive substrate",rat Oat3,21.4 ± 6.8 (E1S)

# Source: PMC9127186, “Molecular Basis Underlying Hepatobiliary and Renal Excretion of Phenolic Acids of Salvia miltiorrhiza Roots (Danshen)” (Frontiers in Pharmacology, 2022)
